# Experimental data taken from US20240122878A1 (priority 2021, published 2024).
# Where “and” joins values, the source holds several entries; their conditions need not be identical. Identical values can stand only once. Counter-ions that a name gives are not always drawn.
# Experiments:
# [1] = molecular target: hERG (human ether-a-go-go-related gene) channel current (Homo sapiens, UniProt Q12809); test: Non GLP hERG channel current study (manual patch); assay type: cell-based; conditions: for Hill coefficient: non GLP study
# Description: (§1) The objective of this study was to examine the in vitro effects of three test articles on the hERG (human ether-a-go-go-related gene) channel current (a surrogate for the rapidly activating delayed rectifier cardiac potassium current, IKr). The concentration-response relationship was evaluated at near-physiological temperature (35-37° C.
# hERG = hERG (Homo sapiens, UniProt Q12809); test: Non GLP hERG channel current study (manual patch); assay type: cell-based; conditions: human
# Description: as §1
# in vitro [2] = conditions: 37° C.; for half-life at 10 μM / half-life: simulated gi fluid; for half-life at 10 μM / Half-Life, Rep. 1-3 / half-life / Half-Life, Mean: 10 μM; for % Compound Remaining, Mean / % Compound Remaining, Rep. 1-3: 100 μg/mL
# Description: Gastrointestinal solution stability was performed along with the Caco-2 cell permeability assay study.
# Caco-2 monolayer = test: in vitro
# Description: (§2) Based on historical data obtained in the experimental model, the mean permeability value (Papp) for each reference compound was expected to fall within the predetermined specifications.
# (§3) Fluorescein was used as the zero-permeability marker in all Caco-2 cell assays as a quality control for the integrity of the Caco-2 monolayer. […] Well-defined criteria (known or readily available to those of ordinary skill in the art) have been established for the acceptance of fluorescein results to validate monolayer integrity.
# (§4) Testing concentrations for the in vitro permeability assessment were determined at 1%, 10%, and 100% of the highest strength dissolved in 250 mL. […]
# in vitro [3] = conditions: human
# Description: as §2, §3, §4
# [4] = Equilibrium solubility study; conditions: for solubility thermodynamic: 37 °C, thermodynamic from solid, Equilibrium solubility
# [5] = Caco-2, Percent Recovery, Mean, B-A, 10 μM
# [6] = Caco-2, Percent Recovery, Rep. 1-3, A-B, 10 μM
# [7] = Caco-2, Percent Recovery, Rep. 1-3, B-A, 10 μM
# [8] = Caco-2, pH 6.5, Permeability, Mean
# [9] = Caco-2, pH 6.5, Permeability, Rep. 1-3
# [10] = Caco-2, Percent Recovery, Mean, A-B, 10 μM
# [11] = Caco-2, pH 6.5, Permeability, Mean, A-B, Caco-2, pH 6.5/7.4, 10 μM
# [12] = Caco-2, pH 6.5, Permeability, Rep. 1-3, A-B, Caco-2, pH 6.5/7.4, 10 μM
# [13] = Caco-2, pH 6.5, Permeability, Rep. 1-3, B-A, Caco-2, pH 6.5/7.4, 10 μM
# [14] = Caco-2, pH 6.5, Permeability, Mean (SD)
# [15] = simulated gastric fluid, 0 minutes
# [16] = simulated gastric fluid, 60 minutes
# [17] = simulated intestinal fluid, 0 minutes
# [18] = simulated intestinal fluid, 180 minutes
# Chain of hERG (Q12809 whole entry): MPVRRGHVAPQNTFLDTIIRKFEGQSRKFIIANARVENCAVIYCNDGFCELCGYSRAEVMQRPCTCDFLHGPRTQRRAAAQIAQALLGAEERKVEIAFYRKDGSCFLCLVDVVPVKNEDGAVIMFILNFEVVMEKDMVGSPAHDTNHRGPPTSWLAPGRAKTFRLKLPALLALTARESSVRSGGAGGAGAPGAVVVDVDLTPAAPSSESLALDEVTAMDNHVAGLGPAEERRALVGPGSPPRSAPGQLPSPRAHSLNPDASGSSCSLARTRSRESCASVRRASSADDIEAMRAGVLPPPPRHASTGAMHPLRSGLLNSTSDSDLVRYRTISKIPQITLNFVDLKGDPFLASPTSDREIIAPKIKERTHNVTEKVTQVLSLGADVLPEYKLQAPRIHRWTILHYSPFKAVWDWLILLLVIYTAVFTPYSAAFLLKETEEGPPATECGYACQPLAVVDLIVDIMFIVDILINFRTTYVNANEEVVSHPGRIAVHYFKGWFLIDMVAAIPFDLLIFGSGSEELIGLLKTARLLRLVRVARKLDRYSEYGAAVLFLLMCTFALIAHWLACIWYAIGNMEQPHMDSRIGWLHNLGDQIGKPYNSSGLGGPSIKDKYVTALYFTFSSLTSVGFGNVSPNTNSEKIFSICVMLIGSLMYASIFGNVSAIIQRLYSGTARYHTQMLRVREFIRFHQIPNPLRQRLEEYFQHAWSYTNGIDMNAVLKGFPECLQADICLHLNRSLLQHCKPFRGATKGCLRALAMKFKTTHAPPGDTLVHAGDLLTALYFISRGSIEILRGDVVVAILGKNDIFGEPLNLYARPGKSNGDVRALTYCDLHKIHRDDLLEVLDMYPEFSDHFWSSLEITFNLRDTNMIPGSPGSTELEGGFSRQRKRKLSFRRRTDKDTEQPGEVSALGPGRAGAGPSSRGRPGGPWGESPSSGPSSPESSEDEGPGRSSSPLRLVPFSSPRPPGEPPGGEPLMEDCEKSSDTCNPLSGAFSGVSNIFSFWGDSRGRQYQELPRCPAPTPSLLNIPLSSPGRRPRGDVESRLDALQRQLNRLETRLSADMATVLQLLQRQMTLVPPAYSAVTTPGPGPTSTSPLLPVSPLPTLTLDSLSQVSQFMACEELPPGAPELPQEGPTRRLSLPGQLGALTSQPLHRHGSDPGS
# Chain of hERG (human ether-a-go-go-related gene) channel current (Q12809 whole entry): as above
compound,measurement,setting,value
CCC(=O)C(CC(C)N(C)C)(c1ccccc1)c1ccccc1 (racemic) [racemic methadone],Hill coefficient,[1],0.743
same,IC50,hERG,1000 nM
same,inhibition at 0.3 µM,"hERG; 0.3 μM, read-out: Inhibition of hERG current (Mean, SEM; n=4)",33.4%
same,inhibition at 1 µM,"hERG; 1 uM, read-out: Inhibition of hERG current (Mean, SEM; n=4)",43.6%
same,inhibition at 10 µM,"hERG; 10 μM, read-out: Inhibition of hERG current (Mean, SEM; n=4)",86.9%
same,inhibition at 3 μM,"hERG; 3 AM, read-out: Inhibition of hERG current (Mean, SEM; n=4)",71.1%
"O=C(O)CCCc1ccc(N(CCCl)CCCl)cc1 [Chlorambucil, reference compound]",half-life at 10 μM,"in vitro [2]; Mean, simulated intestinal fluid",26 min
same,half-life at 10 μM,"in vitro [2]; Rep. 1-3, simulated intestinal fluid",26.2 min
same,"Half-Life, Rep. 1-3",in vitro [2]; simulated intestinal fluid,25.7 min
COc1cc2c(c(OC)c1OC)-c1ccc(OC)c(=O)cc1[C@@H](NC(C)=O)CC2 [Colchicine],"Percent Recovery, Rep. 1-3","Caco-2 monolayer; A-B, 10 μM",78%
same,"Percent Recovery, Rep. 1-3","Caco-2 monolayer; B-A, 10 μM",94%
same,recovery,in vitro [3]; [5],91%
same,recovery,in vitro [3]; [6],88%
same,recovery,in vitro [3]; [7],88%
same,Papp A→B,in vitro [3]; [8],0.3 ×10⁻⁶ cm/s
same,Papp B→A,in vitro [3]; [8],7.3 ×10⁻⁶ cm/s
same,Papp A→B,in vitro [3]; [9],0.31 ×10⁻⁶ cm/s
same,Papp B→A,in vitro [3]; [9],7.69 ×10⁻⁶ cm/s
"CC[C@H]1OC(=O)[C@H](C)[C@@H](O[C@H]2C[C@@](C)(OC)[C@@H](O)[C@H](C)O2)[C@H](C)[C@@H](O[C@@H]2O[C@H](C)C[C@H](N(C)C)[C@H]2O)[C@](C)(O)C[C@@H](C)C(=O)[C@H](C)[C@@H](O)[C@]1(C)O [Erythromycin, reference compound]","Half-Life, Rep. 1-3",in vitro [2]; simulated gastric fluid,6.5 min
same,half-life,"in vitro [2]; Mean, simulated gastric fluid",6 min
same,half-life,"in vitro [2]; Rep. 1-3, simulated gastric fluid",6.4 min
CC(CCc1ccccc1)NCC(O)c1ccc(O)c(C(N)=O)c1 (stereo not drawn) [Labetalol],recovery,in vitro [3]; [10],117%
same,recovery,in vitro [3]; [6],118%
same,Papp A→B,in vitro [3]; [11],19.6 ×10⁻⁶ cm/s
same,Papp B→A,"in vitro [3]; Caco-2, pH 6.5, Permeability, Mean, B-A, Caco-2, pH 6.5/7.4, 10 μM",49.3 ×10⁻⁶ cm/s
same,Papp A→B,in vitro [3]; [12],20.2 ×10⁻⁶ cm/s
same,Papp B→A,in vitro [3]; [13],48.7 ×10⁻⁶ cm/s
"CC(C)[N+](C)(CCOC(=O)C1c2ccccc2Oc2ccccc21)C(C)C [Propanthaline, reference compound]","Half-Life, Mean",in vitro [2]; simulated gastric fluid,>60 min
same,"Half-Life, Rep. 1-3",in vitro [2]; simulated gastric fluid,>60 min
same,"Half-Life, Mean",in vitro [2]; simulated intestinal fluid,>180 min
same,"Half-Life, Rep. 1-3",in vitro [2]; simulated intestinal fluid,253.1 min and 251.2 min and 227.0 min
CC(C)NCC(O)COc1cccc2ccccc12 (stereo not drawn) [Propranolol],"Percent Recovery, Rep. 1-3","Caco-2 monolayer; A-B, 10 μM",99%
same,"Permeability, Rep. 1-3","Caco-2 monolayer; A-B, Caco-2, pH 6.5/7.4, 10 μM",40.35 10^−6 cm/s and 36.94 10^−6 cm/s
same,"Percent Recovery, Rep. 1-3","Caco-2 monolayer; B-A, 10 μM",115% and 102%
same,"Permeability, Rep. 1-3","Caco-2 monolayer; human, Caco-2, pH 6.5",45.79 10^−6 cm/s
same,recovery,in vitro [3]; [10],104%
same,recovery,in vitro [3]; [5],108%
same,recovery,in vitro [3]; [6],106%
same,recovery,in vitro [3]; [7],106%
same,Papp B→A,in vitro [3]; [8],47.5 ×10⁻⁶ cm/s
same,Papp A→B,in vitro [3]; [11],40.9 ×10⁻⁶ cm/s
same,Papp B→A,in vitro [3]; [9],48.1 ×10⁻⁶ cm/s
same,Papp A→B,in vitro [3]; [12],45.4 ×10⁻⁶ cm/s
same,Papp B→A at 10 μM,in vitro [3]; [13],48.8 ×10⁻⁶ cm/s
CNC(=C[N+](=O)[O-])NCCSCc1ccc(CN(C)C)o1 [Ranitidine],"Percent Recovery, Rep. 1-3","Caco-2 monolayer; A-B, 10 μM",99%
same,"Percent Recovery, Rep. 1-3","Caco-2 monolayer; B-A, 10 μM",96% and 92%
same,recovery,in vitro [3]; [10],101%
same,recovery,in vitro [3]; [6],100%
same,Papp A→B,in vitro [3]; [8],0.7 ×10⁻⁶ cm/s
same,Papp B→A,in vitro [3]; [8],2.4 ×10⁻⁶ cm/s
same,Papp A→B,in vitro [3]; [9],0.8 ×10⁻⁶ cm/s
same,Papp B→A,in vitro [3]; [9],2.54 ×10⁻⁶ cm/s
CCC(=O)C(C[C@H](C)N(C)C)(c1ccccc1)c1ccccc1 [esmethadone HCl],solubility thermodynamic,"[4]; pH 1.2, simulated gastric fluid, Mean, pH 1.2, 37° C.",58.8 mg/mL
same,solubility thermodynamic,"[4]; pH 1.2, simulated gastric fluid, replicates, pH 1.2, 37° C., individual replicates",62.1 mg/mL
same,solubility thermodynamic,"[4]; pH 4.5, aqueous buffer, Mean, pH 4.5, 37° C.",66.9 mg/mL
same,solubility thermodynamic,"[4]; pH 4.5, aqueous buffer, replicates, pH 4.5, 37° C., individual replicates",67 mg/mL
same,solubility thermodynamic,"[4]; pH 6.8, aqueous buffer, Mean, pH 6.8, 37° C.",3.2 mg/mL
same,solubility thermodynamic,"[4]; pH 6.8, aqueous buffer, replicates, pH 6.8, 37° C., individual replicates",3.1 mg/mL
same,Stability of the drug substance in each buffer,[4]; over the total time of the solubility study,≤ 10%
same,"Equilibrium solubility, replicates","[4]; pH 1.2, 37° C., individual replicates",60.0 mg/mL and 54.2 mg/mL
same,"Equilibrium solubility, replicates","[4]; pH 4.5, 37° C., individual replicates",66.7 mg/mL and 66.8 mg/mL
same,"Equilibrium solubility, replicates","[4]; pH 6.8, 37° C., individual replicates",3.2 mg/mL
same,"Percent Recovery, Rep. 1-3","Caco-2 monolayer; A-B, 10 μg/mL",54%
same,"Percent Recovery, Rep. 1-3","Caco-2 monolayer; A-B, 100 μg/mL",56%
same,"Percent Recovery, Rep. 1-3","Caco-2 monolayer; B-A, 1 μg/mL",58% and 59%
same,"Percent Recovery, Rep. 1-3","Caco-2 monolayer; B-A, 10 μg/mL",82%
same,"Percent Recovery, Rep. 1-3","Caco-2 monolayer; B-A, 100 μg/mL",82% and 68%
same,Permeability category,Caco-2 monolayer; Caco-2,high permeability
same,recovery,"in vitro [3]; Caco-2, Mean recovery values, across the assays",51 to 74%
same,recovery,"in vitro [3]; Caco-2, Percent Recovery, Mean (SD), A-B, 1 μg/mL",51%
same,recovery,"in vitro [3]; Caco-2, Percent Recovery, Mean (SD), A-B, 10 μg/mL",57%
same,recovery,"in vitro [3]; Caco-2, Percent Recovery, Mean (SD), A-B, 100 μg/mL",61%
same,recovery,"in vitro [3]; Caco-2, Percent Recovery, Mean (SD), B-A, 1 μg/mL",60%
same,recovery,"in vitro [3]; Caco-2, Percent Recovery, Mean (SD), B-A, 10 μg/mL",74%
same,recovery,"in vitro [3]; Caco-2, Percent Recovery, Mean (SD), B-A, 100 μg/mL",74%
same,recovery,"in vitro [3]; Caco-2, Percent Recovery, Rep. 1-3, A-B, 1 μg/mL",53%
same,recovery,"in vitro [3]; Caco-2, Percent Recovery, Rep. 1-3, A-B, 10 μg/mL",57%
same,recovery,"in vitro [3]; Caco-2, Percent Recovery, Rep. 1-3, A-B, 100 μg/mL",64%
same,recovery,"in vitro [3]; Caco-2, Percent Recovery, Rep. 1-3, B-A, 1 μg/mL",65%
same,recovery,"in vitro [3]; Caco-2, Percent Recovery, Rep. 1-3, B-A, 10 μg/mL",67%
same,recovery,"in vitro [3]; Caco-2, Percent Recovery, Rep. 1-3, B-A, 100 μg/mL",74%
same,Papp A→B,in vitro [3]; [14],16.3 ×10⁻⁶ cm/s
same,Papp B→A,in vitro [3]; [14],28.6 ×10⁻⁶ cm/s
same,Papp A→B,in vitro [3]; [9],21 ×10⁻⁶ cm/s
same,Papp B→A,in vitro [3]; [9],29.4 ×10⁻⁶ cm/s
same,"% Compound Remaining, Mean",in vitro [2]; [15],100 % remaining
same,"% Compound Remaining, Rep. 1-3",in vitro [2]; [15],100.0 % remaining
same,"% Compound Remaining, Mean",in vitro [2]; [16],109 % remaining
same,"% Compound Remaining, Rep. 1-3",in vitro [2]; [16],110.2 % remaining and 127.3 % remaining and 90.0 % remaining
same,"% Compound Remaining, Mean",in vitro [2]; [17],100 % remaining
same,"% Compound Remaining, Rep. 1-3",in vitro [2]; [17],100.0 % remaining
same,"% Compound Remaining, Mean",in vitro [2]; [18],97 % remaining
same,"% Compound Remaining, Rep. 1-3",in vitro [2]; [18],89.6 % remaining and 96.6 % remaining and 105.9 % remaining
CCC(=O)C(C[C@@H](C)N(C)C)(c1ccccc1)c1ccccc1 [levomethadone],IC50,[1],828 nM
same,Hill coefficient,[1],0.764
same,inhibition at 0.366 µM,"hERG; 0.366 μM (n=5), 35-37° C., read-out: Inhibition of hERG current (Mean±SEM)",36 ± 4.9%
same,inhibition at 1.13 µM,"hERG; 1.13 μM (n=4), read-out: Inhibition of hERG current (Mean±SEM)",54.3 ± 6.7%
same,inhibition at 3.32 µM,"hERG; 3.32 μM (n=4), read-out: Inhibition of hERG current (Mean±SEM)",73.6 ± 1.5%
same,inhibition at 11.2 µM,"hERG; 11.2 μM, read-out: Inhibition of hERG current (Mean±SEM)",90 ± 0.5%
